# Assay results taken from patent US20260191192A1, “ANTIMICROBIAL COMPOSITIONS COMPRISING PELARGONIC ACID” (LANXESS Corporation, priority 2023, published 2026).
# Experiments:
# [1] = test system: mixed bacterial inoculum (Table 6); test: Challenge test (preservative efficacy), mixed bacterial inoculum, full pool (Table 6); type: cell-based
# Procedure: (§1) The preservative activity in representative rinse-off and leave-on formulations was evaluated using a modification of the Personal Care Products Council (PCPC—formerly the Cosmetic, Toiletry and Fragrance Association) protocol (Machtiger, et al. 2001. Determination of the Efficacy of Preservation of Non-Eye Area Water Miscible Cosmetic and Toiletry Formulations: Collaborative Study. J of AOAC International. 84:1, 101-109).
# (§2) This evaluation was conducted using a four week, two or three-cycle (i.e., two-cycle for personal care and three-cycle for home care applications) microbial preservative efficacy test (i.e., challenge test) at 25° C. to determine the preservative efficacy of each treatment. Phenoxyethanol, benzyl alcohol and pelargonic acid were tested alone and in various combinations. The pelargonic acid used in the testing was purchased from Sigma-Aldrich. Combinations of phenoxyethanol or benzyl alcohol with benchmark multifunctional booster compounds were also tested for comparison. The preservative and booster ingredients were dosed and mixed thoroughly at room temperature into various formulations, specifically different personal care formulations including a lotion (leave-on, Table 1), a micellar water (rinse-off, Table 2), and a body wash formulation (rinse-off, Table 3) and different home care formulations including a manual dishwashing formulation (Table 4) and a liquid laundry detergent formulation (Table 5). […] Carbomers are a commonly used synthetic rheological modifier in personal care products. The formulation below was made by heating the aqueous (A) and oil (B) phases separately to 75-80° C. The oil phase was then poured into the aqueous phase and mixed by a homogenizer at approximately 45° C. The formed oil-in-water emulsion was cooled to room temperature. Triethanolamine and/or diluted sodium hydroxide was used to adjust the final pH to 6.3 or 6.5 (as indicated in the examples below).
# (§3) After dosing, the samples were divided into two separate five gram aliquots. One aliquot was inoculated with 50 μl of a diluted bacterial pool, and the second aliquot was inoculated with 50 μl of a diluted fungal pool as described below. Unpreserved product samples were included as a growth control.
# (§4) For personal care products, a mixed bacterial inoculum was prepared using 24-hour cultures of the test bacteria (Table 6) grown in trypticase soy broth (TSB). For home care products, a mixed bacterial inoculum was prepared using 24-hour cultures of the test bacteria either from Table 6 (full pool) or Table 7 (simplified pool) grown in trypticase soy broth (TSB). Details are disclosed in the home care examples below. Equal volumes of the bacterial test strains were combined and diluted one to ten in phosphate buffer to obtain an inoculum of approximately 5×10^7 to 5×10^8 colony forming units per ml (cfu/ml). The test samples were inoculated with 1% of the mixed bacterial inoculum. For both personal care and home care products, a mixed fungal inoculum was prepared using cell suspensions of the yeast Candida albicans ATCC #10231 and the mold Aspergillus brasiliensis ATCC #16404 in phosphate buffer. Equal volumes of the fungal test strains were combined and diluted one to ten with phosphate buffer to obtain an inoculum of approximately 5×10^6 to 5×10^7 cfu/ml. The test samples were inoculated with 1% of the mixed fungal inoculum.
# (§5) For personal care products, the samples were subjected to two microbial challenges at time zero and inoculated a second time after seven days. For home care products, the samples were subjected to three microbial challenges at time zero and inoculated a second and third time after seven and fourteen days, respectively. The number of microorganisms added to each sample was determined by a standard Most Probable Number (MPN) determination in Trypticase Soy Broth (TSB) for bacteria and Potato Dextrose Broth (PDB) for fungi. Samples were incubated at 25° C. for the test duration of four weeks.
# [2] = test system: mixed fungal inoculum: Candida albicans ATCC #10231 and Aspergillus brasiliensis ATCC #16404; test: Challenge test (preservative efficacy), mixed fungal inoculum; type: cell-based
# Procedure: as §1, §2, §3, §4, §5
# [3] = test system: mixed bacterial inoculum for home care (Table 7); test: Challenge test (preservative efficacy), mixed bacterial inoculum, simplified pool (Table 7); type: cell-based, Pseudomonas aeruginosa, Staphylococcus aureus
# Procedure: as §1, §2, §3, §4, §5
# [4] = test system: bacteria (Table 7 pool) and fungi; test: Challenge test, overall result (simplified bacteria pool and fungi); type: cell-based
# Procedure: as §1, §2, §3, §4, §5
# [5] = ZenBio Cupric Ion Chelating (CIC) Assay; type: physicochemical; conditions: calculated from a EDTA calibration curve, Pelargonic Acid at 775 μM
# Procedure: The chelation property of the pelargonic acid was measured by using the ZenBio Cupric Ion Chelating (CIC) Assay (Cat #AOX-16). The assay measured the capacity of the pelargonic acid to chelate free cupric ions in solution, thereby inhibiting Cu(II) binding to pyrocatechol violet (PV) for generating a highly colored complex. The absorbance of the Cupric-PV complex was measured at a wavelength of 632 nm. The cupric ion chelating activity was determined as the percent of total PV over the Cu(II) binding. Ethylenediaminetetraacetic acid (EDTA), a well-known chelating agent, was used as a positive control. A series of EDTA with 7 different concentrations from 0 to 1000 μM were prepared and their corresponding absorbance measured and used as the calibration curve (Cupric ion chelating (%) vs. EDTA concentration). Percent cupric ion chelating was determined following the following calculations and Equation 1. The background absorbance value by averaging the absorbance values of the three background wells (no CuSO4 or sample). The average background absorbance was then subtracted from all the sample absorbance values. The maximal absorbance value (Absmax) was determined by averaging the absorbance values of the three wells containing CuSO4, PV and assay buffer. Abstest in Equation 1 is the absorbance of the test sample.
# The calibration curve (Cupric ion chelating (%) vs. EDTA concentration) was fit by using a polynomial curve after log 10 transforming the concentrations (R2>0.98).
# [6] = test system: bacteria (Table 6 pool) and fungi; test: Challenge test, overall result (full bacteria pool and fungi); type: cell-based
# Procedure: as §1, §2, §3, §4, §5
# [7] = lotion with carbomer, pH 6.3, Example 1A, dosed 0.4 wt %
# [8] = lotion with carbomer, pH 6.5, Example 1I, dosed 0.4 wt %
# [9] = lotion with carbomer, pH 6.5, Example 1I, total dosing 0.8 wt %
# [10] = liquid laundry detergent, pH 7.5, Example 1G, dosed 0.5 wt %
# [11] = liquid laundry detergent, pH 7.5, Example 1G, dosed 1.0 wt %
# [12] = liquid laundry detergent, pH 7.5, Example 1H, dosed 0.5 wt %
# [13] = liquid laundry detergent, pH 7.5, Example 1H, dosed 1.0 wt %
# [14] = manual dishwashing formulation, pH 5.5, Example 1F, dosed 0.5 wt %
# [15] = manual dishwashing formulation, pH 5.5, Example 1F, dosed 1.0 wt %
# [16] = micellar water, pH 6.0, Example 1B, dosed 0.3 wt %
# [17] = micellar water, pH 6.0, Example 1C, dosed 0.3 wt %
smiles,measurement,setting,value
"OCCOc1ccccc1 [Phenoxyethanol (POE), 2-phenoxyethan-1-ol]",Bacteria growth rating Result,"[1]; liquid laundry detergent, pH 7.5, full bacteria pool, Example 1H, dosed 0.5 wt %",Fail (growth rating score caused by bacteria of 2 or more at days 21-28 of the testing period)
same,Bacteria growth rating Result,"[1]; liquid laundry detergent, pH 7.5, full bacteria pool, Example 1H, dosed 1.0 wt %",Pass (growth rating score caused by bacteria of 1 or less at days 21-28 of the testing period)
same,Bacteria growth rating Result,[1]; [7],Fail (growth rating score caused by bacteria of 2 or more at days 21-28 of the testing period)
same,Bacteria growth rating Result,"[1]; lotion with carbomer, pH 6.3, Example 1D, dosed 0.4 wt %",Fail (growth rating score caused by bacteria of 2 or more at days 21-28 of the testing period)
same,Bacteria growth rating Result,"[1]; lotion with carbomer, pH 6.3, Example 1D, dosed 0.8 wt %",Pass (growth rating score caused by bacteria of 1 or less at days 21-28 of the testing period)
same,Bacteria growth rating Result,[1]; [8],Fail (growth rating score caused by bacteria of 2 or more at days 21-28 of the testing period)
same,Bacteria growth rating Result,[1]; [9],Pass (growth rating score caused by bacteria of 1 or less at days 21-28 of the testing period)
same,Bacteria growth rating Result,"[1]; micellar water, pH 6.0, bacteria inoculation ~10^7 cfu/ml, Example 1B, dosed 0.3 wt %",Pass (growth rating score caused by bacteria of 1 or less at days 21-28 of the testing period)
same,Bacteria growth rating Result,"[1]; micellar water, pH 6.0, bacteria inoculation ~10^8 cfu/ml, Example 1C, dosed 0.3 wt %",Fail (growth rating score caused by bacteria of 2 or more at days 21-28 of the testing period)
same,Fungi growth rating Result,[2]; [10],Fail (growth rating score caused by fungi of more than 2 at days 21-28 of the testing period)
same,Fungi growth rating Result,[2]; [11],Fail (growth rating score caused by fungi of more than 2 at days 21-28 of the testing period)
same,Fungi growth rating Result,[2]; [12],Fail (growth rating score caused by fungi of more than 2 at days 21-28 of the testing period)
same,Fungi growth rating Result,[2]; [13],Fail (growth rating score caused by fungi of more than 2 at days 21-28 of the testing period)
same,Fungi growth rating Result,[2]; [7],Fail (growth rating score caused by fungi of more than 2 at days 21-28 of the testing period)
same,Fungi growth rating Result,[2]; [8],Fail (growth rating score caused by fungi of more than 2 at days 21-28 of the testing period)
same,Fungi growth rating Result,[2]; [9],Pass (growth rating score caused by fungi of 2 or less at days 21-28 of the testing period)
same,Fungi growth rating Result,"[2]; lotion, pH 6.5, Example 4, dosed 0.8 wt %",Pass (growth rating score caused by fungi of 2 or less at days 21-28 of the testing period)
same,Fungi growth rating Result,"[2]; manual dishwash formulation, pH 6.5, Example 4, dosed 0.8 wt %",Fail (growth rating score caused by fungi of more than 2 at days 21-28 of the testing period)
same,Fungi growth rating Result,[2]; [14],Fail (growth rating score caused by fungi of more than 2 at days 21-28 of the testing period)
same,Fungi growth rating Result,[2]; [15],Fail (growth rating score caused by fungi of more than 2 at days 21-28 of the testing period)
same,Fungi growth rating Result,[2]; [16],Fail (growth rating score caused by fungi of more than 2 at days 21-28 of the testing period)
same,Fungi growth rating Result,[2]; [17],Fail (growth rating score caused by fungi of more than 2 at days 21-28 of the testing period)
same,Bacteria growth rating Result,"[3]; liquid laundry detergent, pH 7.5, simplified bacteria pool, Example 1G, dosed 0.5 wt %",Pass (growth rating score caused by bacteria of 1 or less at days 21-28 of the testing period)
same,Bacteria growth rating Result,"[3]; liquid laundry detergent, pH 7.5, simplified bacteria pool, Example 1G, dosed 1.0 wt %",Pass (growth rating score caused by bacteria of 1 or less at days 21-28 of the testing period)
same,Bacteria growth rating Result,"[3]; manual dishwashing formulation, pH 5.5, simplified bacteria pool, Example 1F, dosed 0.5 wt %",Fail (growth rating score caused by bacteria of 2 or more at days 21-28 of the testing period)
same,Bacteria growth rating Result,"[3]; manual dishwashing formulation, pH 5.5, simplified bacteria pool, Example 1F, dosed 1.0 wt %",Fail (growth rating score caused by bacteria of 2 or more at days 21-28 of the testing period)
same,Overall Result,[4]; [10],Fail
same,Overall Result,[4]; [11],Fail
same,Overall Result,[4]; [14],Fail
same,Overall Result,[4]; [15],Fail
same,Calculated EDTA equivalent,[5]; listed as Phenoxyethanol,~0 µM
same,Calculated EDTA equivalent,[5]; listed as phenoxyethanol,~ 0 μM
same,Overall Result,[6]; [12],Fail
same,Overall Result,[6]; [13],Fail
same,Overall Result,[6]; [7],Fail
same,Overall Result,[6]; [8],Fail
same,Overall Result,[6]; [9],Pass
same,Overall Result,[6]; [16],Fail
same,Overall Result,[6]; [17],Fail
